Results on 33 compounds are retold here after patent publication US20230079819A1, “COMPOUNDS AND USES THEREOF” (Foghorn Therapeutics Inc., priority 2019, published 2023).

Experiment [1] concerns the target T1, BRM (Homo sapiens, UniProt P51531).
T1 construct: made in house; host or cells: High Five insect cells
The experiment is described as follows: ATPase catalytic activity of BRM, ADP-Glo in vitro biochemical assay. As to conditions: ATPase catalytic activity, 30 nM BRM, 400 μM ATP, read-out: BRM IP50.

The target of experiment [2] is T2, BRG-1 (Homo sapiens, UniProt P51532).
T2 construct: made in house; host or cells: High Five insect cells
T2 sequence (P51532 whole entry): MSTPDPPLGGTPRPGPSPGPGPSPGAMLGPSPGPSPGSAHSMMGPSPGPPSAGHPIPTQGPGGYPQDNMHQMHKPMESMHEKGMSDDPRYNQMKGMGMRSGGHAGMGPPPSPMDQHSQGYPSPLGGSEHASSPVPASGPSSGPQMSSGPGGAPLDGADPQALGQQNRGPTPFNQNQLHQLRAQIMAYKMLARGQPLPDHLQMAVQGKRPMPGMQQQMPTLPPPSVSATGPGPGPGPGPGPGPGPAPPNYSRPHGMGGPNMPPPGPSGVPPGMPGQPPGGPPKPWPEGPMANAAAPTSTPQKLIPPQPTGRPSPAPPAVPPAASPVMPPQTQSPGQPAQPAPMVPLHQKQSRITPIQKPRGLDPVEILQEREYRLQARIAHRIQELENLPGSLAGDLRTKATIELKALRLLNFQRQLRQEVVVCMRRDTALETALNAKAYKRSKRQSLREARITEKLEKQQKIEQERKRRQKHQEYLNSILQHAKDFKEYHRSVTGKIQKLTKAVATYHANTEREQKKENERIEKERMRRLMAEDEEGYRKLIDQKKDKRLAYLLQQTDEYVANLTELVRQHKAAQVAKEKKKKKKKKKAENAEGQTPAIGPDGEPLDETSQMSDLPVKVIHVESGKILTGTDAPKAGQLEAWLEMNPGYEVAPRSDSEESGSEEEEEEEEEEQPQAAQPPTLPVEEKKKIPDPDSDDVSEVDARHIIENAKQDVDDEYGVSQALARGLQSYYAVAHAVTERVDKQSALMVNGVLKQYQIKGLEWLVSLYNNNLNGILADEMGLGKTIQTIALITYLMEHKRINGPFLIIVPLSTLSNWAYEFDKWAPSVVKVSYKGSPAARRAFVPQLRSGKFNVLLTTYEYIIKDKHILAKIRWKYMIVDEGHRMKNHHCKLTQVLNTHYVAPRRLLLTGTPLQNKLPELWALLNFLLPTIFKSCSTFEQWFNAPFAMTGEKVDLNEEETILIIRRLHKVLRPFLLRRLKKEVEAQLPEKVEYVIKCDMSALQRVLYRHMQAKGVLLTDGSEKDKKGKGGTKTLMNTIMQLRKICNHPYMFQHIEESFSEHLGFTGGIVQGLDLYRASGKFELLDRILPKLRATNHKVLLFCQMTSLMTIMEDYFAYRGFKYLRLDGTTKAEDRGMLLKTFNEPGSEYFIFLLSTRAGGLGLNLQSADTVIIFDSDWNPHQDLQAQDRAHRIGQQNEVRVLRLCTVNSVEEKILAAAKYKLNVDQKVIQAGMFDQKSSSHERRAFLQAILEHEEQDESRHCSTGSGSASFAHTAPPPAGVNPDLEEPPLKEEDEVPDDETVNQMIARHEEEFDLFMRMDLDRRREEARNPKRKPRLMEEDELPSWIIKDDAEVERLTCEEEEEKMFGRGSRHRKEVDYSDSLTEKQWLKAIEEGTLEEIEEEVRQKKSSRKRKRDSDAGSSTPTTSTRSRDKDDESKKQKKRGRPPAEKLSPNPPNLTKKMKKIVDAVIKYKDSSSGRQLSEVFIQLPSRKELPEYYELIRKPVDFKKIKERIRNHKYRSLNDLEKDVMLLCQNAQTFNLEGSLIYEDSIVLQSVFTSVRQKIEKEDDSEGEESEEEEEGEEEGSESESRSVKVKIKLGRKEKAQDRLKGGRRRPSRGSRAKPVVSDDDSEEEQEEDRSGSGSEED
The experiment is described as follows: ATPase catalytic activity of BRG-1, ADP-Glo in vitro biochemical assay. As to conditions: ATPase catalytic activity, 30 nM BRG-1, 400 μM ATP, read-out: BRG1 IP50. In general terms: ADP-Glo first removes unused ATP, then detects ADP through luciferase.

T1 sequence (P51531 whole entry): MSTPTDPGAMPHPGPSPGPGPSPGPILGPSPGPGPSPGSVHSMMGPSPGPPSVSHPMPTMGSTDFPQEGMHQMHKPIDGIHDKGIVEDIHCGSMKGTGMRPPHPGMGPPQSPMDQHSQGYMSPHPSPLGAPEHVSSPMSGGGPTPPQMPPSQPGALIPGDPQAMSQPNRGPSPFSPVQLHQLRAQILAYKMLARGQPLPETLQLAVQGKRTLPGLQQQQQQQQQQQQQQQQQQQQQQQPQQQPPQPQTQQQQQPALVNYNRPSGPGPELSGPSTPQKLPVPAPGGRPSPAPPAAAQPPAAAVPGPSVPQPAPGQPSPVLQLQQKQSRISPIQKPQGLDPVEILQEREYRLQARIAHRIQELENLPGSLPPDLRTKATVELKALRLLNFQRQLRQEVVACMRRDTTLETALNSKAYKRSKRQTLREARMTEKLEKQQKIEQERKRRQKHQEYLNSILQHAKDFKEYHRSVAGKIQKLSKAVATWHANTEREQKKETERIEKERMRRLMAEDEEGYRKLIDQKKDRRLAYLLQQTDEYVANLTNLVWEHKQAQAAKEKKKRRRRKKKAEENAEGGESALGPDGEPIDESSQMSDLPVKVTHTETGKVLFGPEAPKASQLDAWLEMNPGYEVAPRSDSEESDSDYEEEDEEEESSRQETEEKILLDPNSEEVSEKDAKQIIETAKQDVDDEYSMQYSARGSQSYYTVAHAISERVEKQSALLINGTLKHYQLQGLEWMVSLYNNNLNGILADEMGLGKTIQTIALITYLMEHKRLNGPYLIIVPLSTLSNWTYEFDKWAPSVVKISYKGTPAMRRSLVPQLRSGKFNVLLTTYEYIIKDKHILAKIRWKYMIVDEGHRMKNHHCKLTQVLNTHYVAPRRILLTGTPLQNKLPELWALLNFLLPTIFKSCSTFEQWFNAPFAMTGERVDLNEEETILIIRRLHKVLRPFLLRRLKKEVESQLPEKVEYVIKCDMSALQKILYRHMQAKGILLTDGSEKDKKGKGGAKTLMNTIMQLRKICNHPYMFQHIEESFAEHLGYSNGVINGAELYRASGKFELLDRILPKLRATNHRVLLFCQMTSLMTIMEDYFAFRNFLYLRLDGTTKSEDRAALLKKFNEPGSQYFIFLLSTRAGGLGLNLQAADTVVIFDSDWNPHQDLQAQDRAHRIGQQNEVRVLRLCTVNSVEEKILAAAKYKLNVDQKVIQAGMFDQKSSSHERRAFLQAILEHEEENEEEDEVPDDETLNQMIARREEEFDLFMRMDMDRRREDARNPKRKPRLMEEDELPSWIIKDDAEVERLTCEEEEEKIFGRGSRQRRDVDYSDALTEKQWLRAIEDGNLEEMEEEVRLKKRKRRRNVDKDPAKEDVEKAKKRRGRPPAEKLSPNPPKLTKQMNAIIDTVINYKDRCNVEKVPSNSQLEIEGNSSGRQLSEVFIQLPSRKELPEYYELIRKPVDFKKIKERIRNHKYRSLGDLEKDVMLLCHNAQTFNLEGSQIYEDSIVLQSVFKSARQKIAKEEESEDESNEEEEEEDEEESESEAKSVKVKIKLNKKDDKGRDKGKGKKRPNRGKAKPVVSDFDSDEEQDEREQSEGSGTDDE

`Cc1cc(-c2cccc(-c3csc(NC(=O)CNC(=O)c4ccn(S(C)(=O)=O)c4)n3)c2)nc(C)n1` [Compound 412]: the IC50 in experiment [1] and in experiment [2] was less than 10 nM each time.
In the case of `Cc1cc(-c2cccc(-c3csc(NC(=O)CNC(=O)c4ccn(S(C)(=O)=O)c4)n3)c2)c(F)cn1` [Compound 413], the IC50 in experiment [1] and in experiment [2] was less than 10 nM each time.
Take `CNC(=O)C(C)(C)n1ccc(-c2cccc(-c3csc(NC(=O)CNC(=O)c4ccn(S(C)(=O)=O)c4)n3)c2)n1` [Compound 414, N-[2-[[4-[3-[1-[1,1-dimethyl-2-(methylamino)-2-oxo-ethyl]pyrazol-3-yl]phenyl]thiazol-2-yl]amino]-2-oxo-ethyl]-1-methylsulfonyl-pyrrole-3-carboxamide]: the IC50 in experiment [1] and in experiment [2] was less than 10 nM in each case.
Take `CC(C)(C)n1ccc(C(=O)NCC(=O)Nc2nc(-c3cccc(-c4cc5n(n4)CCOC5)c3)cs2)c1` [Compound 415]: the IC50 in experiment [1] and in experiment [2] was greater than 10 nM throughout.
Take `Cc1nccc(-c2cccc(-c3csc(NC(=O)CNC(=O)c4ccn(S(C)(=O)=O)c4)n3)c2)n1` [Compound 416]: the IC50 in experiment [1] and in experiment [2] was less than 10 nM throughout.
On to `Cc1cccc(-c2cccc(-c3csc(NC(=O)CNC(=O)c4ccn(C(C)(C)C)c4)n3)c2)n1` [Compound 417], for which the IC50 is less than 10 nM in experiment [1] and greater than 10 nM in experiment [2].
For `CN(C)C(=O)C(C)(C)n1ccc(-c2cccc(-c3csc(NC(=O)CNC(=O)c4ccn(S(C)(=O)=O)c4)n3)c2)n1` [Compound 418], the IC50 in experiment [1] and in experiment [2] was greater than 10 nM each time.
With `CS(=O)(=O)n1ccc(C(=O)NCC(=O)Nc2nc(-c3cccc([C@@H]4CCCOC4)c3)cs2)c1` [Compound 419, 1-methylsulfonyl-N-[2-oxo-2-[[4-[3-[(3S)-tetrahydropyran-3-yl]phenyl]thiazol-2-yl]amino]ethyl]pyrrole-3-carboxamide], the IC50 is greater than 10 nM in experiment [1] and greater than 100 nM in experiment [2].
In the case of `CS(=O)(=O)n1ccc(C(=O)NCC(=O)Nc2nc(-c3cccc([C@H]4CCCOC4)c3)cs2)c1` [Compound 420, 1-methylsulfonyl-N-[2-oxo-2-[[4-[3-[(3R)-tetrahydropyran-3-yl]phenyl]thiazol-2-yl]amino]ethyl]pyrrole-3-carboxamide], the IC50 in experiment [1] and in experiment [2] was greater than 10 nM each time.
For `CS(=O)(=O)n1ccc(C(=O)NCC(=O)Nc2nc(-c3cccc(-c4ccnc(CC(=O)O)c4)c3)cs2)c1` [Compound 421, Sodium 2-(4-(3-(2-(2-(1-(methylsulfonyl)-1H-pyrrole-3-carboxamido)acetamido)thiazol-4-yl)phenyl)pyridin-2-yl)acetate], the IC50 in experiment [1] and in experiment [2] was greater than 10 nM in each case.
Turning to `C[C@@H]1CN(c2cccc(-c3csc(NC(=O)CNC(=O)c4ccn(S(C)(=O)=O)c4)n3)c2)CC[C@H]1O` [Compound 423], the IC50 in experiment [1] and in experiment [2] was less than 10 nM in each case.
On to `Cc1cc(-c2cccc(-c3csc(NC(=O)CNC(=O)c4ccn(C(C)(C)C)c4)n3)c2)no1` [Compound 425], for which the IC50 in experiment [1] and in experiment [2] was greater than 10 nM in each case.
Take `CC(C)(O)C#Cc1cccc(-c2csc(NC(=O)CNC(=O)c3ccn(S(C)(=O)=O)c3)n2)c1` [Compound 426]: the IC50 in experiment [1] and in experiment [2] was greater than 10 nM in each case.
With `COCC1CN(c2cccc(-c3csc(NC(=O)CNC(=O)c4ccn(S(C)(=O)=O)c4)n3)c2)C1` [Compound 427], the IC50 in experiment [1] and in experiment [2] was greater than 10 nM in each case.
In the case of `COC[C@H](NC(=O)c1ccn(S(C)(=O)=O)c1)C(=O)Nc1nc(-c2ccc3ccn(C)c(=O)c3c2)cs1` [Compound 430], the IC50 in experiment [1] and in experiment [2] was less than 10 nM in each case.
Regarding `CC(C)(C)n1ccc(C(=O)NCC(=O)Nc2nc(-c3cccc(C4CCCCO4)c3)cs2)c1` (stereo not drawn) [Compound 432], the IC50 in experiment [1] and in experiment [2] was greater than 10 nM throughout.
In the case of `CN1CCn2nc(-c3cccc(-c4csc(NC(=O)CNC(=O)c5ccn(S(C)(=O)=O)c5)n4)c3)cc2C1=O` [Compound 433], the IC50 in experiment [1] and in experiment [2] was greater than 10 nM in each case.
`CC(C)(N)Cn1ccc(-c2cccc(-c3csc(NC(=O)CNC(=O)c4ccn(C(C)(C)C)c4)n3)c2)n1` [Compound 434]: the IC50 in experiment [1] and in experiment [2] was greater than 10 nM throughout.
With `CNC(=O)C1(c2cc(-c3cccc(-c4csc(NC(=O)CNC(=O)c5ccn(S(C)(=O)=O)c5)n4)c3)ccn2)CC1` [Compound 435], the IC50 in experiment [1] and in experiment [2] was less than 10 nM in each case.
For `COC[C@H](NC(=O)c1ccn(S(C)(=O)=O)c1)C(=O)Nc1nc(-c2cccc(-c3cc(C)no3)c2)cs1` [Compound 436], the IC50 in experiment [1] and in experiment [2] was greater than 10 nM each time.
With `CN1CCn2nc(-c3cccc(-c4csc(NC(=O)CNC(=O)c5ccn(C(C)(C)C)c5)n4)c3)cc2C1=O` [Compound 437], the IC50 in experiment [1] and in experiment [2] was greater than 100 nM each time.
`COC[C@H](NC(=O)c1ccn(S(C)(=O)=O)c1)C(=O)Nc1nc(-c2cccc(-c3ccnc(Cl)c3)c2)cs1` [Compound 438]: the IC50 in experiment [1] and in experiment [2] was less than 10 nM throughout.
For `CN(C)C(=O)C1(c2cc(-c3cccc(-c4csc(NC(=O)CNC(=O)c5ccn(S(C)(=O)=O)c5)n4)c3)ccn2)CC1` [Compound 439], the IC50 in experiment [1] and in experiment [2] was less than 10 nM each time.
Regarding `CC(C)(C)n1ccc(C(=O)NCC(=O)Nc2nc(-c3cccc(N4CCN(C5COC5)CC4)n3)cs2)c1` [Compound 440], the IC50 in experiment [1] and in experiment [2] was greater than 10 nM in each case.
As for `CC(=O)NCCOc1cc(-c2cccc(-c3csc(NC(=O)CNC(=O)c4ccn(S(C)(=O)=O)c4)n3)c2)ccn1` [Compound 441], the IC50 in experiment [1] and in experiment [2] was less than 10 nM each time.
Consider `CS(=O)(=O)n1ccc(C(=O)NCC(=O)Nc2nc(-c3cccc(-c4ccnc(OCCN)c4)c3)cs2)c1` [Compound 442], for which the IC50 in experiment [1] and in experiment [2] was less than 10 nM in each case.
As to `COC[C@H](NC(=O)c1ccn(S(C)(=O)=O)c1)C(=O)Nc1nc(-c2cccc(-c3ccnc(OC)c3)c2)cs1` [Compound 443], the IC50 was less than 10 nM in experiment [1] and greater than 10 nM in experiment [2].
The like results for `COC[C@@H](NC(=O)c1ccn(S(C)(=O)=O)c1)C(=O)Nc1nc(-c2cccc(-c3ccnc(OC)c3)c2)cs1` [Compound 444] were, in that order, greater than 100 nM and greater than 100 nM.
For `CS(=O)(=O)n1ccc(C(=O)NCC(=O)Nc2nc(-c3cccc(N4CC5CCC(C4)O5)c3)cs2)c1` [Compound 445], in that order: greater than 10 nM and greater than 100 nM.
The like results for `Cn1cc2c(n1)CCN(c1cccc(-c3csc(NC(=O)CNC(=O)c4ccn(S(C)(=O)=O)c4)n3)c1)C2` [Compound 446] were, in that order, greater than 10 nM and greater than 10 nM.
Consider `Cn1cc(-c2cccc(-c3csc(NC(=O)CNC(=O)c4ccn(S(C)(=O)=O)c4)n3)c2)nn1` [Compound 447], for which the IC50 in experiment [1] and in experiment [2] was greater than 10 nM in each case.
Regarding `CC(C)(C)n1ccc(C(=O)NCC(=O)Nc2nc(-c3cccc(N4CC(O)C4)c3)cs2)c1` [Compound 448], the IC50 in experiment [1] and in experiment [2] was greater than 10 nM in each case.
Consider `CS(=O)(=O)n1ccc(C(=O)NCC(=O)Nc2nc(-c3cccc(N4CCC(F)CC4)c3)cs2)c1` [Compound 449], for which the IC50 in experiment [1] and in experiment [2] was greater than 10 nM throughout.
